Common to all, as to type: binding
The target of one assay is T1, AVPR1B (Homo sapiens, UniProt P47901).
T1 construct: purchased Promega (in-house HiBiT-GPCR construct library, NanoBRET)
T1 sequence (P47901 1-424): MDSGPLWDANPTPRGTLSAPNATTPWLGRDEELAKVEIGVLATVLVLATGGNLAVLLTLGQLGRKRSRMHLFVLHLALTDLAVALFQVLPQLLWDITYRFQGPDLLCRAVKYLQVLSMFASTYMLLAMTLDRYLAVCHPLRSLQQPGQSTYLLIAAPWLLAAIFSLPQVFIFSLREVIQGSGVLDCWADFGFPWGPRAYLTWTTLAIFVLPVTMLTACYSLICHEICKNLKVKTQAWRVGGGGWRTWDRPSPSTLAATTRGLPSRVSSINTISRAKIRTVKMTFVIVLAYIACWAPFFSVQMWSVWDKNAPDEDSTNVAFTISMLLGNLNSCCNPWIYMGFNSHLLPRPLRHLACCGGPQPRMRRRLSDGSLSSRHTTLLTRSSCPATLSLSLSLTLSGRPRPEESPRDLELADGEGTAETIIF
Nature of the assay: NanoBRET screen HiBiT-AVPR1B in HEK293. The protocol:
(§1) Each tracer candidate was screened across the entire library of HiBiT-GPCR constructs using NanoBRET as the detection modality. As depicted in Figure 4A, the specificity of interactions was evaluated through decrease in BRET due to competitive displacement of a bound tracer by excess parental compound. Each tracer was analyzed for binding to each HiBiT-GPCR fusion in the absence and in the presence of competing parental compound. Briefly, HEK293 cells were transfected with HiBiT-GPCR constructs diluted into promoterless DNA to reduce expression and maximize translocation to the cell surface. Each tracer candidate was then screened at concentrations of 1 μM and 0.1 μM across cells expressing these fusions. Cells were treated for 1.5 h with tracer either alone or in the presence of 20 μM competing parental compound (i.e., control). BRET was measured upon addition of purified LgBiT and subsequent complementation with HiBiT genetically fused to a GPCR. The specificity of interactions was assessed through a decrease in BRET signal due to competitive displacement of the bound tracer. To further gauge the robustness of these interactions, the fold response over the control (i.e., BRETtracer/BRETcontrol) was calculated. We chose a 1.5-fold response, which translates to ≥7-fold signal over noise as the minimal threshold required to score an interaction as positive. […]. Below we highlight the screening results obtained for our exemplary fluorescent tracers based on Clozapine, Amitriptyline and AZD1283.
(§2) HiBiT-GPCR DNA constructs were diluted in 10 mM Tris pH 8 to a final concentration of 0.01 μg/μL, arrayed in 96-well plates and stored at −20 °C. For transfection, HEK293 cells were suspended in Opti-MEM (without phenol red) supplemented with 2% fetal bovine serum (Seradigm) and 100 units/mL penicillin–streptomycin (Gibco) at a final concentration of 220,000 cells/mL and dispensed into white 96-well plates at 90 μL/well. Subsequent transfections and screens were carried using an Agilent Bravo Automated Liquid Handling Platform. First, the 96-well HiBiT DNA arrays were diluted 25-fold in Opti-MEM (without serum or phenol red) to a final concentration of 0.0004 μg/μL and 20 μL of the diluted DNAs were transferred into new 96-well plates. Next, promoterless carrier DNA (1 μg/μL) was diluted 25-fold (0.04 μg/μL) and then dispensed into the diluted arrays at 20 μL/well. Following brief mixing, Viafect transfection reagent (Promega) diluted 16-fold into Opti-MEM was dispensed into the plates at 40 μL/well. After mixing by pipetting, plates were incubated for 10 min on the pipetting station deck. The DNA-transfection reagent complexes were then added to plates containing cells. To facilitate the screen, 10 μL of DNA-transfection reagent complexes were added in duplicates to the top 4 and bottom 4 rows, resulting in two identical 48-well arrays per plate. Plates with transfected cells were incubated for 18–20 h at 37 °C/5% CO2. A screen of each tracer across the entire library using two different concentrations requires duplicate plates of transfected cells. Depending on the number of tracers being screened, transfections can be scaled up using the same ratios. The next day, for each tracer, four 20× screening solutions in tracer dilution buffer (Promega) were prepared: two duplicates at final concentration of 20 μM and two duplicates at a final concentration of 2 μM. A competing unmodified compound was added to one of each duplicate at a final concentration of 400 μM. The four resulting solutions were diluted 4-fold in Opti-MEM without serum or phenol red to generate 5× solutions (5 µM and 0.5 µM tracer +/− 100 μM competing compound). To screen the library, a BioTek MultiFlo FX liquid dispenser was used to dispense 22.5 µL of tracer solution to the top 4 rows and 22.5 µL tracer + competing compound solution to the 4 bottom rows. Plates were briefly mixed on an orbital shaker and incubated for 1.5 h at room temperature. […]
Background: BRET reads energy transfer from a luciferase to a nearby fluorophore.

The target in another assay is T2, CCKAR (Homo sapiens, UniProt P32238).
T2 construct: purchased Promega (in-house HiBiT-GPCR construct library, NanoBRET)
T2 sequence (P32238 1-428): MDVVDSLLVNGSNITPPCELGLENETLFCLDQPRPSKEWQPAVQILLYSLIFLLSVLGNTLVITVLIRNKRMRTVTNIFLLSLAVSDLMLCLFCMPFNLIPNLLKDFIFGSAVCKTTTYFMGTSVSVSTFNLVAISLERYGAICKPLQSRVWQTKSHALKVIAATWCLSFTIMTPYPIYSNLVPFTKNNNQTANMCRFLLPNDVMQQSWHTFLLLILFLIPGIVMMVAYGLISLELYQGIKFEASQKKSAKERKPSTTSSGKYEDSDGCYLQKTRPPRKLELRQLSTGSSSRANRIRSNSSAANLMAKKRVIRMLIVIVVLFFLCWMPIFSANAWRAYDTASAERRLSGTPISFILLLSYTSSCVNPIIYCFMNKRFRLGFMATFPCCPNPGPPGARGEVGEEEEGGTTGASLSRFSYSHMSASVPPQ
Nature of the assay: NanoBRET screen HiBiT-CCKAR in HEK293. The protocol:
as §1, §2

The next assay has as its target T3, HRH2 (Homo sapiens, UniProt P25021).
T3 construct: purchased Promega (in-house HiBiT-GPCR construct library, NanoBRET)
Nature of the assay: NanoBRET screen HiBiT-HRH2 in HEK293. The method, then: as §1, §2

A further assay deals with T4, VIPR1 (Homo sapiens, UniProt P32241).
T4 construct: purchased Promega (in-house HiBiT-GPCR construct library, NanoBRET)
T4 sequence (P32241 31-457): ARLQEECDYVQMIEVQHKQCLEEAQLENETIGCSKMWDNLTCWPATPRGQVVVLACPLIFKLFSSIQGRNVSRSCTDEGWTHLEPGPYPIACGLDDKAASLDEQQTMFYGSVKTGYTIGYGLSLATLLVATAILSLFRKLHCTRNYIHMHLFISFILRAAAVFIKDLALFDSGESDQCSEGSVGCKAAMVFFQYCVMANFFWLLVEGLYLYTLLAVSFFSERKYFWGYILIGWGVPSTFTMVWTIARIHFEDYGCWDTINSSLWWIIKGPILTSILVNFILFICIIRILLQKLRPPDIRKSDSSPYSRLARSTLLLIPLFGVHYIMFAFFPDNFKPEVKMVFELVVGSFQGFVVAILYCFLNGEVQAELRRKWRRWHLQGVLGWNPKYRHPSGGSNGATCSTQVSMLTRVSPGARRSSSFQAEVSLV
Nature of the assay: NanoBRET screen HiBiT-VIPR1 in HEK293. The method, then:
as §1, §2

T3 sequence (P25021 whole entry): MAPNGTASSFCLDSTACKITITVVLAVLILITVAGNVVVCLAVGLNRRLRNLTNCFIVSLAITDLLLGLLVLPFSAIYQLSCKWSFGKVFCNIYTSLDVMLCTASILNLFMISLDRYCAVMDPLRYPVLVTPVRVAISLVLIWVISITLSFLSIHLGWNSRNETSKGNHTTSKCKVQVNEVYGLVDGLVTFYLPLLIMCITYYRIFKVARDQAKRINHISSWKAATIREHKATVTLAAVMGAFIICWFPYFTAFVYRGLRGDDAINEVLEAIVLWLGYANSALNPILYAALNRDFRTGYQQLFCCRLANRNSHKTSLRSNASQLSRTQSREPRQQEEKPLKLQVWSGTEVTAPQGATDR

For the molecule `O=C(CCc1ccc2n1[B-](F)(F)[N+]1=C(c3ccc[nH]3)C=CC1=C2)NCc1ccc(C(=O)NCCOCCC(=O)N[C@@H]2CC[C@@]3(O)[C@H]4Cc5ccc(O)c6c5[C@@]3(CCN4CC3CC3)[C@H]2O6)cc1` [Naltrexone-3-NB590], the “NanoBRET Fold Response” value at AVPR1B (AVPR1B, tracer 0.1μM) was 1.19; at AVPR1B (AVPR1B, tracer 1μM), 1.17; on CCKAR (CCKAR, tracer 0.1μM) it was 1.10; at CCKAR (CCKAR, tracer 1μM), 1.05; on HRH2 (HRH2, tracer 0.1μM) it was 0.85; on HRH2 (HRH2, tracer 1μM), 1.34. The “NanoBRET Fold Response” value is given as 0.95 on VIPR1 (VIPR1, tracer 0.1μM) and 1.36 on VIPR1 (VIPR1, tracer 1μM).
For `CN1CCN(C2=Nc3cc(Cl)ccc3N(CC(=O)NCCOCCOCCOCCOCCNC(=O)CCc3ccc4n3[B-](F)(F)[N+]3=C(c5ccc[nH]5)C=CC3=C4)c3ccccc32)CC1` [Clozapine-c-2-NB590], the “NanoBRET Fold Response” value at AVPR1B (AVPR1B, 0.1μM tracer) is recorded as 0.95; at AVPR1B (AVPR1B, 1μM tracer) it was 0.84; on CCKAR (CCKAR, 0.1μM tracer), 1.01; at CCKAR (CCKAR, 1μM tracer), 0.74; at HRH2 (HRH2, 0.1μM tracer), 0.92; on HRH2 (HRH2, 1μM tracer), 0.95. The “NanoBRET Fold Response” value was 0.98 on VIPR1 (VIPR1, 0.1μM tracer) and 1.00 on VIPR1 (VIPR1, 1μM tracer).
For `O=C(CCOCCOCCOCCOCCNC(=O)CCc1ccc2n1[B-](F)(F)[N+]1=C(c3ccc[nH]3)C=CC1=C2)NCCCN1CCN(C2=Nc3cc(Cl)ccc3Nc3ccccc32)CC1` [Clozapine-a-2-NB590], the “NanoBRET Fold Response” value at AVPR1B (AVPR1B, 0.1μM tracer) was 0.98; at AVPR1B (AVPR1B, 1μM tracer), 0.97; on CCKAR (CCKAR, 0.1μM tracer), 1.01; on CCKAR (CCKAR, 1μM tracer), 0.85; at HRH2 (HRH2, 0.1μM tracer), 0.95; on HRH2 (HRH2, 1μM tracer), 0.89. Moreover, the “NanoBRET Fold Response” value turned out to be 0.98 at VIPR1 (VIPR1, 0.1μM tracer) and 1.10 at VIPR1 (VIPR1, 1μM tracer).
Regarding `CCOC(=O)c1cc(C#N)c(N2CCC(C(=O)NS(=O)(=O)Cc3ccccc3/C=C/C(=O)NCCNC(=O)CCc3ccc4n3[B-](F)(F)[N+]3=C(c5ccc[nH]5)C=CC3=C4)CC2)nc1C` [AZD1283-1-NB590], the “NanoBRET Fold Response” value on AVPR1B (AVPR1B, 0.1μM) is listed as 0.97; at AVPR1B (AVPR1B, 1μM), 1.05; at CCKAR (CCKAR, 0.1μM), 1.08; on CCKAR (CCKAR, 1μM), 1.11; on HRH2 (HRH2, 0.1μM), 0.90; on HRH2 (HRH2, 1μM), 1.03. Moreover, the “NanoBRET Fold Response” value came to 0.99 on VIPR1 (VIPR1, 0.1μM) and 1.02 on VIPR1 (VIPR1, 1μM).
On to `COc1ccc2[nH]c(-c3ccc(CNC(=O)CCOCCOCCOCCOCCNC(=O)CCc4ccc5n4[B-](F)(F)[N+]4=C(c6ccc[nH]6)C=CC4=C5)cc3)c(CCNC(C)=O)c2n1` [AzomelatoninICO9-2-NB590], for which the “NanoBRET Fold Response” value is given as 1.50 at AVPR1B (0.1μM tracer); 0.90 at AVPR1B (1μM tracer); 1.06 on CCKAR (0.1μM tracer); 1.04 at CCKAR (1μM tracer); 1.11 at HRH2 (0.1μM tracer); 1.07 at HRH2 (1μM tracer). In addition, the entries for the “NanoBRET Fold Response” value on VIPR1 (0.1μM tracer) and at VIPR1 (1μM tracer) were 0.89 and 0.81, respectively.
As for `CCCn1c(=O)c2[nH]c(-c3ccc(OCC(=O)NCCNC(=O)CCOCCNC(=O)c4ccc(CNC(=O)CCc5ccc6n5[B-](F)(F)[N+]5=C(c7ccc[nH]7)C=CC5=C6)cc4)cc3)nc2n(CCC)c1=O` [XAC-3-NB590], the “NanoBRET Fold Response” value at AVPR1B (AVPR1B, tracer 0.1μM) turned out to be 0.90; at AVPR1B (AVPR1B, tracer 1μM), 1.21; at CCKAR (CCKAR, tracer 0.1μM), 1.01; at CCKAR (CCKAR, tracer 1μM) it was 1.01; on HRH2 (HRH2, tracer 0.1μM), 0.82; at HRH2 (HRH2, tracer 1μM), 1.15. Moreover, the “NanoBRET Fold Response” value is on record as 1.03 at VIPR1 (VIPR1, tracer 0.1μM) and 0.99 on VIPR1 (VIPR1, tracer 1μM).
Consider `COc1ccccc1N1CCN(CCCCN2C(=O)c3ccc(CNC(=O)CCOCCNC(=O)c4ccc(CNC(=O)CCc5ccc6n5[B-](F)(F)[N+]5=C(c7ccc[nH]7)C=CC5=C6)cc4)cc3C2=O)CC1` [NAN-190-3-NB590], for which the “NanoBRET Fold Response” value on AVPR1B (AVPR1B, tracer 0.1μM) is 1.04; on AVPR1B (AVPR1B, tracer 1μM), 1.04; on CCKAR (CCKAR, tracer 0.1μM), 0.98; on CCKAR (CCKAR, tracer 1μM) it was 0.99; on HRH2 (HRH2, tracer 0.1μM), 1.07; on HRH2 (HRH2, tracer 1μM) it was 1.08. Moreover, the “NanoBRET Fold Response” value was determined as 0.71 at VIPR1 (VIPR1, tracer 0.1μM) and 1.05 on VIPR1 (VIPR1, tracer 1μM).
As for `CN(CCC=C1c2ccccc2CCc2ccccc21)C(=O)CCOCCOCCOCCOCCNC(=O)CCc1ccc2n1[B-](F)(F)[N+]1=C(c3ccc[nH]3)C=CC1=C2` [Amitriptyline-e-2-NB590], the “NanoBRET Fold Response” value is on record as 1.01 at AVPR1B (tracer at 1μM), 1.00 at CCKAR (tracer at 1μM), 0.95 at HRH2 (tracer at 1μM) and 1.06 on VIPR1 (tracer at 1μM).
On to `COc1ccccc1N1CCN(CCCCN2C(=O)c3ccc(CNC(=O)CCOCCOCCOCCOCCNC(=O)CCc4ccc5n4[B-](F)(F)[N+]4=C(c6ccc[nH]6)C=CC4=C5)cc3C2=O)CC1` [NAN-190-2-NB590], for which the “NanoBRET Fold Response” value on CCKAR (CCKAR, tracer 0.1μM) came out at 0.98; on CCKAR (CCKAR, tracer 1μM) it was 0.96; at HRH2 (HRH2, tracer 0.1μM) it was 0.94; on VIPR1 (VIPR1, tracer 0.1μM), 1.00; on VIPR1 (VIPR1, tracer 1μM), 1.02.

For the origin of these results see article PMC8151276, “An Integrated Approach toward NanoBRET Tracers for Analysis of GPCR Ligand Engagement” (Molecules, 2021).
